pIC50: −log10 of the molar value.
How the values were obtained:
OTR = OTR (Rattus norvegicus (Rat), UniProt P70536); assay: Oxytocin-induced rat uterine contraction model; format: in vivo; details: female SD rats, 1 μg/kg OT i.v.
Description: The efficacy of OTR inhibitors (compound 2-10mpk, compound 2-30mpk and compound 2-100mpk) on oxytocin (OT)-induced rat uterine contraction model was evaluated by establishing a rat uterine contraction model.
Compound 2-100mpk: 221.0 mg of compound 2 was weighed, added with 5.40 ml of Cremophor RH40, 2.16 ml of Masine 35-1, 3.24 ml of polyethylene glycol 400 (PEG400) and 1.20 ml of ethanol respectively, and mixed well by ultrasonic vibration;
Compound 2-30mpk: 54.2 mg of compound 2 was weighed, added with 4.50 ml of Cremophor RH40, 1.80 ml of Masine 35-1, 2.70 ml of polyethylene glycol 400 (PEG400) and 1.00 ml of ethanol respectively, and mixed well by ultrasonic vibration;
Compound 2-10mpk: 1 ml of compound 2-100mpk solution was added with 9 ml of solvent (45% of Cremophor RH40, 18% of Masine 35-1, 27% of PEG400 and 10% of ethanol), and mixed well. […]
After completion of the experiment, the area under curve (AUC) of the uterine contraction pressure 5 minutes before and after the administration of the inducing agent was calculated respectively. The efficacy of the test compound was evaluated by calculating the ratio of the difference value in AUC before and after induction to the AUC before induction, and comparing with the difference value of the ratio after administration of the test compound. ΔAUC ratio=(AUC0−AUCT)/AUC0; […]

human V1bR = human V1bR (Homo sapiens, UniProt P47901); assay: Inhibition activity on human V1bR (Fluo-4 calcium assay, HEK293/human V1bR pool cells); format: cell-based; details: vasopressin 3 nM
Description: The inhibition effect of the compounds of the present invention on the activity of human V1bR protein expressed in HEK293/human V1bR cells was determined by the following experimental method:
The pcDNA3.1-V1bR plasmid was transferred into HEK293 cells with the Lipofectamine® 3000 transfection reagent; G418 was added on the next day, and the HEK293/human V1bR pool cell lines were obtained.
HEK293/human V1bR pool cells were inoculated in a 96-well plate with an inoculation density of 25,000 cells/well one day in advance. On the next day, a loading buffer containing Fluo-4 dye was formulated using the reagents in the Fluo-4 NW calcium assay kit, and the culture medium was then removed; 100 μl of the loading buffer containing Fluo-4 dye were added to each well, and the plate was incubated at 37° C. for 30 minutes. After that, the plate was moved to room temperature and equilibrated for 10 minutes. The compounds were formulated into 10^6, 10^5, 10^4, 10^3, 10^2 and 10^1 nM. 1 μl of the compounds in each concentration was added to each well, and the plate was incubated at room temperature for 10 minutes. 50 μl of vasopressin polypeptide (3 nM) were automatically added by the machine, and the values were immediately detected at 494/516 nM by the flexstation 3 microplate reader. IC50 values of the compounds were calculated by Graphpad prism software using fluorescence signals corresponding to different concentrations.
The inhibition activity of the compounds of the present invention on human V1bR was determined by the above test, and the obtained IC50 values are shown in Table 3.

Sequence of OTR (P70536 whole entry): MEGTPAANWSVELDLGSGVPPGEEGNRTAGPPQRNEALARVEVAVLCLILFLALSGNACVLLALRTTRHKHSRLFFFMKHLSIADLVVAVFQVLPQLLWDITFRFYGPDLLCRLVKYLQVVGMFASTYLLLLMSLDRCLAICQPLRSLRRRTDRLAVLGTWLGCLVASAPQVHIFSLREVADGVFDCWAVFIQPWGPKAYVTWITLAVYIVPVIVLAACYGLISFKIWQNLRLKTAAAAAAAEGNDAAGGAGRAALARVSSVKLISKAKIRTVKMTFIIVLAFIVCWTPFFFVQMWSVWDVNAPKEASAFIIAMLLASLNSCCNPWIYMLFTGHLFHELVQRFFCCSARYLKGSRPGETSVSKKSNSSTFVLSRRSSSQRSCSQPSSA

pIC50 (human V1bR) | SMILES | Efficacy on OT-induced uterine contraction vs solvent control group (OTR; 30mpk p.o.) | Efficacy on OT-induced uterine contraction vs solvent control group (OTR; 100mpk p.o.)
4.59 | COCc1nnc(N2CC(c3cccc4cc(F)ccc34)C2)n1-c1ccc(OC)nc1 [Example 2, 5-(3-(3-(6-Fluoronaphthalen-1-yl)azetidin-1-yl)-5-(methoxymethyl)-4H-1,2,4-triazol-4-yl)-2-methoxypyridine] | can effectively block the downstream function (uterine contraction) of oxytocin receptors mediated by oxytocin | can effectively block the downstream function (uterine contraction) of oxytocin receptors mediated by oxytocin
4.70 | COCc1nnc(N2CC(n3cc(C)c4cc(F)ccc43)C2)n1-c1ccc(OC)nc1 [Example 17, 5-Fluoro-1-(1-(5-(methoxymethyl)-4-(6-methoxypyridin-3-yl)-4H-1,2,4-triazol-3-yl)azetidin-3-yl)-3-methyl-1H-indole] |  | 

— patent publication US10889569B2, “Condensed ring group azacyclobutyl triazole derivative, preparation method therefor and use thereof in medicine” (Jiangsu Hengrui Medicine Co., Ltd., priority 2016, dated 2021)
